From ChEMBL document CHEMBL3885881, “DrugMatrix”

Organism: Rattus norvegicus
Assay: DrugMatrix - Regimen: Daily Repeat
Type: toxicity, organism-based, Sprague-Dawley
Set-up: regimen Daily Repeat, gender Male, age 6-8 weeks
Conditions: in vivo, po, route oral GAVAGE, vehicle .5 % CMC; for ABSOLUTE BASOPHIL / ABSOLUTE EOSINOPHIL / ABSOLUTE LYMPHOCYTE / ABSOLUTE MONOCYTE / ABSOLUTE SEGMENTED NEUTROPHIL / BASOPHIL / EOSINOPHIL / ERYTHROCYTE COUNT / HEMATOCRIT / HEMOGLOBIN / LEUKOCYTE COUNT / LYMPHOCYTE / MEAN CORPUSCULAR HEMOGLOBIN / MEAN CORPUSCULAR HEMOGLOBIN CONCENTRATION / MEAN CORPUSCULAR VOLUME / MONOCYTE / NEUTROPHIL / NUCLEATED RED BLOOD CELLS / PLATELET COUNT: tissue Blood; for ALANINE AMINOTRANSFERASE / ALBUMIN / ALKALINE PHOSPHATASE / ASPARTATE AMINOTRANSFERASE / BLOOD UREA NITROGEN / CARBON DIOXIDE / CHLORIDE / CHOLESTEROL / CREATINE PHOSPHOKINASE / CREATININE / GLUCOSE / LACTATE DEHYDROGENASE / LIPASE / PHOSPHORUS / POTASSIUM / SODIUM / TOTAL BILIRUBIN / TOTAL PROTEIN / URIC ACID: tissue Plasma
[1] = 50 mg/kg, 120 h, dose level Low, time 5 day
[2] = 1500 mg/kg, 72 h, dose level High, time 3 day
[3] = 1500 mg/kg, 120 h, dose level High, time 5 day

`CN(C)[C@@H]1C(O)=C(C(N)=O)C(=O)[C@@]2(O)C(O)=C3C(=O)c4c(O)ccc(Cl)c4[C@@](C)(O)[C@H]3C[C@@H]12` [CHLORTETRACYCLINE] was tested, and the “ABSOLUTE BASOPHIL” value [1] was 0 CELLS/uL, the “ABSOLUTE EOSINOPHIL” value [1] was 0 CELLS/uL and the “ABSOLUTE LYMPHOCYTE” value [1] was 12641 CELLS/uL. For the same molecule, the “ABSOLUTE MONOCYTE” value [1] was 0 CELLS/uL, the “ABSOLUTE SEGMENTED NEUTROPHIL” value [1] was 859 CELLS/uL and the BASOPHIL [1] was 0%. For the same molecule, the EOSINOPHIL [1] was 0%, the “ERYTHROCYTE COUNT” value [1] was 5.53 x10E6/uL and the HEMATOCRIT [1] was 33.27%. For the same molecule, the HEMOGLOBIN [1] was 13.43 G/DL, the “LEUKOCYTE COUNT” value [1] was 13.5 x10E3/uL and the LYMPHOCYTE [1] was 93.33%. For the same molecule, the “MEAN CORPUSCULAR HEMOGLOBIN” value [1] was 24.33 pg, the “MEAN CORPUSCULAR HEMOGLOBIN CONCENTRATION” value [1] was 40.4 G/DL and the “MEAN CORPUSCULAR VOLUME” value [1] was 60.17 fL. For the same molecule, the MONOCYTE [1] was 0%, the NEUTROPHIL [1] was 6.67% and the “NUCLEATED RED BLOOD CELLS” value [1] was 0 /100WBC. The “PLATELET COUNT” value [1] was 1240.33 x10E3/uL, the “ALANINE AMINOTRANSFERASE” value [1] was 54 u/L and the ALBUMIN [1] was 4.03 G/DL. For the same molecule, the “ALKALINE PHOSPHATASE” value [1] was 291.33 u/L, the “ASPARTATE AMINOTRANSFERASE” value [1] was 84 u/L and the “BLOOD UREA NITROGEN” value [1] was 17.33 mg/dL. For the same molecule, the “CARBON DIOXIDE” value [1] was 22.67 mmol/L, the CHLORIDE [1] was 103.33 MEQ/L and the CHOLESTEROL [1] was 58.33 mg/dL. The “CREATINE PHOSPHOKINASE” value [1] was 329.33 u/L, the CREATININE [1] was 0.2 mg/dL and the GLUCOSE [1] was 159.67 mg/dL. The “LACTATE DEHYDROGENASE” value [1] was 155.33 u/L, the LIPASE [1] was 9.33 u/L and the PHOSPHORUS [1] was 12.97 mg/dL. For the same molecule, the POTASSIUM [1] was 6.97 MEQ/L, the SODIUM [1] was 144.3 MEQ/L and the “TOTAL BILIRUBIN” value [1] was 0.17 mg/dL. For the same molecule, the “TOTAL PROTEIN” value [1] was 5.73 G/DL, the “URIC ACID” value [1] was 2.13 mg/dL and the “ABSOLUTE BASOPHIL” value [2] was 0 CELLS/uL. The “ABSOLUTE EOSINOPHIL” value [2] was 19 CELLS/uL, the “ABSOLUTE LYMPHOCYTE” value [2] was 5616.67 CELLS/uL and the “ABSOLUTE MONOCYTE” value [2] was 262.67 CELLS/uL. The “ABSOLUTE SEGMENTED NEUTROPHIL” value [2] was 601.67 CELLS/uL, the BASOPHIL [2] was 0% and the EOSINOPHIL [2] was 0.33%. The “ERYTHROCYTE COUNT” value [2] was 5.83 x10E6/uL, the HEMATOCRIT [2] was 36% and the HEMOGLOBIN [2] was 14.6 G/DL. The “LEUKOCYTE COUNT” value [2] was 6.5 x10E3/uL, the LYMPHOCYTE [2] was 86% and the “MEAN CORPUSCULAR HEMOGLOBIN” value [2] was 25.13 pg. The “MEAN CORPUSCULAR HEMOGLOBIN CONCENTRATION” value [2] was 40.57 G/DL, the “MEAN CORPUSCULAR VOLUME” value [2] was 61.8 fL and the MONOCYTE [2] was 4%. The NEUTROPHIL [2] was 9.67%, the “NUCLEATED RED BLOOD CELLS” value [2] was 0 /100WBC and the “PLATELET COUNT” value [2] was 1359 x10E3/uL. For the same molecule, the “ALANINE AMINOTRANSFERASE” value [2] was 54 u/L, the ALBUMIN [2] was 4.27 G/DL and the “ALKALINE PHOSPHATASE” value [2] was 407 u/L. For the same molecule, the “ASPARTATE AMINOTRANSFERASE” value [2] was 99.33 u/L, the “BLOOD UREA NITROGEN” value [2] was 17 mg/dL and the “CARBON DIOXIDE” value [2] was 25 mmol/L. For the same molecule, the CHLORIDE [2] was 104.33 MEQ/L, the CHOLESTEROL [2] was 70.33 mg/dL and the “CREATINE PHOSPHOKINASE” value [2] was 633 u/L. The CREATININE [2] was 0.16 mg/dL, the GLUCOSE [2] was 163.67 mg/dL and the “LACTATE DEHYDROGENASE” value [2] was 129.67 u/L. For the same molecule, the LIPASE [2] was 9.33 u/L, the PHOSPHORUS [2] was 12.37 mg/dL and the POTASSIUM [2] was 5.95 MEQ/L. For the same molecule, the SODIUM [2] was 148.37 MEQ/L, the “TOTAL BILIRUBIN” value [2] was 0.23 mg/dL and the “TOTAL PROTEIN” value [2] was 6 G/DL. For the same molecule, the “URIC ACID” value [2] was 1.87 mg/dL, the “ABSOLUTE BASOPHIL” value [3] was 0 CELLS/uL and the “ABSOLUTE EOSINOPHIL” value [3] was 167.33 CELLS/uL. The “ABSOLUTE LYMPHOCYTE” value [3] was 18100 CELLS/uL, the “ABSOLUTE MONOCYTE” value [3] was 0 CELLS/uL and the “ABSOLUTE SEGMENTED NEUTROPHIL” value [3] was 1266 CELLS/uL. The BASOPHIL [3] was 0%, the EOSINOPHIL [3] was 0.67% and the “ERYTHROCYTE COUNT” value [3] was 5.62 x10E6/uL. For the same molecule, the HEMATOCRIT [3] was 34.33%, the HEMOGLOBIN [3] was 13.93 G/DL and the “LEUKOCYTE COUNT” value [3] was 19.53 x10E3/uL. The LYMPHOCYTE [3] was 92.67%, the “MEAN CORPUSCULAR HEMOGLOBIN” value [3] was 24.83 pg and the “MEAN CORPUSCULAR HEMOGLOBIN CONCENTRATION” value [3] was 40.6 G/DL. For the same molecule, the “MEAN CORPUSCULAR VOLUME” value [3] was 61.17 fL, the MONOCYTE [3] was 0% and the NEUTROPHIL [3] was 6.67%. The “NUCLEATED RED BLOOD CELLS” value [3] was 0.33 /100WBC, the “PLATELET COUNT” value [3] was 1340 x10E3/uL and the “ALANINE AMINOTRANSFERASE” value [3] was 61.33 u/L. For the same molecule, the ALBUMIN [3] was 3.73 G/DL, the “ALKALINE PHOSPHATASE” value [3] was 422.33 u/L and the “ASPARTATE AMINOTRANSFERASE” value [3] was 86.33 u/L. For the same molecule, the “BLOOD UREA NITROGEN” value [3] was 19.67 mg/dL, the “CARBON DIOXIDE” value [3] was 28.67 mmol/L and the CHLORIDE [3] was 100.67 MEQ/L. The CHOLESTEROL [3] was 57 mg/dL, the “CREATINE PHOSPHOKINASE” value [3] was 301.67 u/L and the CREATININE [3] was 0.19 mg/dL. The GLUCOSE [3] was 151.33 mg/dL, the “LACTATE DEHYDROGENASE” value [3] was 67 u/L and the LIPASE [3] was 10.33 u/L. The PHOSPHORUS [3] was 11.03 mg/dL, the POTASSIUM [3] was 5.95 MEQ/L and the SODIUM [3] was 144.1 MEQ/L. The “TOTAL BILIRUBIN” value [3] was 0.17 mg/dL, the “TOTAL PROTEIN” value [3] was 5.23 G/DL and the “URIC ACID” value [3] was 1.57 mg/dL.
